Test results reported in ChEMBL document CHEMBL1201862, “PubChem BioAssay data set” (2004).
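Growth conditions: 96-well plates. Treatment: test compound, 48 hours, 5 concentrations. Analysis: linear interpolation between bracketing concentrations; unreached endpoints set to highest concentration. The concentration for 50% growth inhibition is given as GI50.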 Active and inactive are the calls of the source. Cut-off read from the data, not from the text of the source: active = GI50 up to about 1.1 µM and inactive = higher.

Experiments:
Assay in all cases: growth of human tumour cells (NCI), 48 h
DU-145 = test system: DU-145
K562 = test system: K562
KM12 = test system: KM12
OVCAR-5 = test system: OVCAR-5
SW-620 = test system: SW-620
OVCAR-8 = test system: OVCAR-8
OVCAR-4 = test system: OVCAR-4
NCI-H522 = test system: NCI-H522
T47D = test system: T47D
HCT-15 = test system: HCT-15
OVCAR-3 = test system: OVCAR-3
RXF 393 = test system: RXF 393
NCI-H460 = test system: NCI-H460
CAKI-1 = test system: CAKI-1
HCT-116 = test system: HCT-116
SN12C = test system: SN12C
UACC-257 = test system: UACC-257
UO-31 = test system: UO-31
SK-MEL-28 = test system: SK-MEL-28
HOP-62 = test system: HOP-62

SMILES	GI50 (DU-145)	GI50 (K562)	GI50 (KM12)	GI50 (OVCAR-5)	GI50 (SW-620)	GI50 (OVCAR-8)	GI50 (OVCAR-4)	GI50 (NCI-H522)	GI50 (T47D)	GI50 (HCT-15)	GI50 (OVCAR-3)	GI50 (RXF 393)	GI50 (NCI-H460)	GI50 (CAKI-1)	GI50 (HCT-116)	GI50 (SN12C)	GI50 (UACC-257)	GI50 (UO-31)	GI50 (SK-MEL-28)	GI50 (HOP-62)
COc1cc2c(c(OC)c1OC)-c1ccc(SC)cc1C(=O)CC2	< 0.01 µM (active)	< 0.01 µM (active)	< 0.01 µM (active)	> 100 µM (inactive)	< 0.0228 µM (active)	< 0.01 µM (active)	7.76 µM (inactive)	< 0.01 µM (active)	> 100 µM (inactive)	< 0.01 µM	< 0.01 µM (active)	66.8 µM (inactive)	< 0.01 µM (active)	< 0.0227 µM (active)	< 0.01 µM (active)	< 0.0421 µM (active)	–	–	–	–
COc1ccc(N2C(=O)/C(=C\c3ccccc3)SC2c2cc(OC)c(OC)c(OC)c2)cc1 (stereo not given)	–	28.5 µM (inactive)	44.3 µM (inactive)	> 100 µM (inactive)	–	> 100 µM (inactive)	82.4 µM (inactive)	14.2 µM (inactive)	20.1 µM (inactive)	> 100 µM	–	31.3 µM (inactive)	–	46.8 µM (inactive)	32.1 µM (inactive)	> 100 µM (inactive)	> 100 µM (inactive)	50.4 µM (inactive)	> 100 µM (inactive)	65.8 µM (inactive)
CCc1cc2c(c3c1CCCC3)CC1(Cc3ccc(C(=O)OC)cc3C1)C2 (stereo not given)	> 100 µM (inactive)	40.3 µM (inactive)	> 100 µM (inactive)	> 100 µM (inactive)	> 100 µM (inactive)	> 100 µM (inactive)	> 100 µM (inactive)	> 100 µM (inactive)	46.8 µM (inactive)	> 100 µM	> 100 µM (inactive)	> 100 µM (inactive)	> 100 µM (inactive)	–	54.3 µM (inactive)	> 100 µM (inactive)	53.1 µM (inactive)	> 100 µM (inactive)	> 100 µM (inactive)	> 100 µM (inactive)
COc1c(O)cc2c(c1O)C(=O)/C(=C/c1ccc(O)cc1)CO2	27.1 µM (inactive)	28.9 µM (inactive)	13.6 µM (inactive)	29 µM (inactive)	26.7 µM (inactive)	17.9 µM (inactive)	20.1 µM (inactive)	14.4 µM (inactive)	30.8 µM (inactive)	14.8 µM	27.2 µM (inactive)	33.7 µM (inactive)	30.1 µM (inactive)	22.2 µM (inactive)	–	23 µM (inactive)	31.9 µM (inactive)	23 µM (inactive)	17.7 µM (inactive)	33.1 µM (inactive)
CCOC(=O)c1cc2c([nH]1)c(O)cc1c2ccn1Cc1ccccc1	17.8 µM (inactive)	8.34 µM (inactive)	10.3 µM (inactive)	17.7 µM (inactive)	18 µM (inactive)	17.2 µM (inactive)	19.9 µM (inactive)	–	2.85 µM (inactive)	15.1 µM	14.6 µM (inactive)	7.8 µM (inactive)	19.5 µM (inactive)	22 µM (inactive)	11.6 µM (inactive)	20.2 µM (inactive)	19.7 µM (inactive)	14.9 µM (inactive)	17.5 µM (inactive)	17.7 µM (inactive)
Cc1ccc(NC=O)c(-c2c(N)[nH]c(=S)[nH]c2=O)c1	> 100 µM (inactive)	> 100 µM (inactive)	> 100 µM (inactive)	> 100 µM (inactive)	> 100 µM (inactive)	> 100 µM (inactive)	–	> 100 µM (inactive)	> 100 µM (inactive)	> 100 µM	94.2 µM (inactive)	> 100 µM (inactive)	–	> 100 µM (inactive)	> 100 µM (inactive)	> 100 µM (inactive)	> 100 µM (inactive)	> 100 µM (inactive)	–	> 100 µM (inactive)
N[C@@H]1C[C@H](N)c2c(Cl)sc(Cl)c21	> 100 µM (inactive)	> 100 µM (inactive)	> 100 µM (inactive)	> 100 µM (inactive)	> 100 µM (inactive)	> 100 µM (inactive)	> 100 µM (inactive)	–	> 100 µM (inactive)	> 100 µM	> 100 µM (inactive)	> 100 µM (inactive)	> 100 µM (inactive)	> 100 µM (inactive)	> 100 µM (inactive)	> 100 µM (inactive)	> 100 µM (inactive)	> 100 µM (inactive)	> 100 µM (inactive)	> 100 µM (inactive)
COc1cc2c3c(c4cc(OC)c(OC)cc4c2cc1OC)C(=O)C1CCC(=O)N1C3 (stereo not given)	11.5 µM (inactive)	14 µM (inactive)	70.1 µM (inactive)	–	15.5 µM (inactive)	27.2 µM (inactive)	12.8 µM (inactive)	3.1 µM (inactive)	8.71 µM (inactive)	31.6 µM	20.6 µM (inactive)	14.8 µM (inactive)	13.8 µM (inactive)	8.75 µM (inactive)	–	–	41.9 µM (inactive)	–	19.8 µM (inactive)	13.6 µM (inactive)
CC(=O)NCCC1CN(C(=O)/C=C\C#C[Si](C)(C)C)c2ccccc21 (stereo not given)	23.3 µM (inactive)	15.3 µM (inactive)	24.7 µM (inactive)	17.1 µM (inactive)	35.2 µM (inactive)	37.9 µM (inactive)	18.9 µM (inactive)	10.5 µM (inactive)	23.3 µM (inactive)	17.2 µM	16 µM (inactive)	12.1 µM (inactive)	28.8 µM (inactive)	13.8 µM (inactive)	> 10 µM (inactive)	37.3 µM (inactive)	2.55 µM (inactive)	26.9 µM (inactive)	50.8 µM (inactive)	–
COc1ccc(C2SCC(=O)N2NC(=O)c2ccc(NC(C)=O)cc2)c(OC)c1 (stereo not given)	> 100 µM (inactive)	> 100 µM (inactive)	> 100 µM (inactive)	> 100 µM (inactive)	> 100 µM (inactive)	> 100 µM (inactive)	> 100 µM (inactive)	–	93.3 µM (inactive)	> 100 µM	> 100 µM (inactive)	> 100 µM (inactive)	> 100 µM (inactive)	–	> 100 µM (inactive)	> 100 µM (inactive)	> 100 µM (inactive)	> 100 µM (inactive)	> 100 µM (inactive)	> 100 µM (inactive)
CC1OC2OC3C(OCC(O)C3O)OC(=O)[C@]34CCC(C)(C)CC3C3=CCC5[C@@]6(C)C[C@H](O)[C@H](OC7OC(CO)C(O)C(O)C7OC7OCC(OC(=O)CC(C)(O)CC(=O)OC1C(O)C2O)C(O)C7O)[C@@](C)(CO)C6CC[C@@]5(C)[C@]3(C)CC4 (stereo not given in full)	3.97 µM (inactive)	–	2.82 µM (inactive)	2.66 µM (inactive)	8.85 µM (inactive)	4.5 µM (inactive)	–	3.67 µM (inactive)	4.98 µM (inactive)	7.98 µM	9.64 µM (inactive)	–	11.6 µM (inactive)	–	5.75 µM (inactive)	9.53 µM (inactive)	2.33 µM (inactive)	6.03 µM (inactive)	1.96 µM (inactive)	2.75 µM (inactive)
CC(C)C[P+](c1ccccc1)(c1ccccc1)c1ccccc1	6.95 µM (inactive)	2.28 µM (inactive)	1.79 µM (inactive)	73.6 µM (inactive)	5.87 µM (inactive)	–	12.1 µM (inactive)	3.97 µM (inactive)	11.8 µM (inactive)	64.3 µM	2.31 µM (inactive)	–	5.89 µM (inactive)	10.5 µM (inactive)	4.3 µM (inactive)	12.3 µM (inactive)	0.342 µM (active)	45.5 µM (inactive)	22.6 µM (inactive)	13.7 µM (inactive)
CCOC(=O)c1nc2ccccc2nc1Oc1ccc(OC)cc1	> 100 µM (inactive)	> 100 µM (inactive)	> 100 µM (inactive)	> 100 µM (inactive)	> 100 µM (inactive)	> 100 µM (inactive)	> 100 µM (inactive)	29 µM (inactive)	> 100 µM (inactive)	> 100 µM	> 100 µM (inactive)	> 100 µM (inactive)	> 100 µM (inactive)	–	> 100 µM (inactive)	> 100 µM (inactive)	> 100 µM (inactive)	> 100 µM (inactive)	> 100 µM (inactive)	> 100 µM (inactive)
CCOC(=O)Cc1csc2[n+]1C(=O)/C(=C/c1cccc(OC)c1O)S2	73.3 µM (inactive)	–	38.1 µM (inactive)	> 100 µM (inactive)	> 100 µM (inactive)	52.6 µM (inactive)	64.4 µM (inactive)	–	36.3 µM (inactive)	42.4 µM	38.2 µM (inactive)	–	41.9 µM (inactive)	59.2 µM (inactive)	45.5 µM (inactive)	81.5 µM (inactive)	61.8 µM (inactive)	28.7 µM (inactive)	84.9 µM (inactive)	> 100 µM (inactive)
C#C/C=C\CCCC/C=C\C#CC#CCCCC#CC#C[C@H](COS(=O)(=O)O)OS(=O)(=O)O	> 100 µM (inactive)	–	> 100 µM (inactive)	> 100 µM (inactive)	> 100 µM (inactive)	> 100 µM (inactive)	> 100 µM (inactive)	> 100 µM (inactive)	> 100 µM (inactive)	> 100 µM	> 100 µM (inactive)	–	> 100 µM (inactive)	> 100 µM (inactive)	> 100 µM (inactive)	> 100 µM (inactive)	> 100 µM (inactive)	72.4 µM (inactive)	> 100 µM (inactive)	> 100 µM (inactive)
CC(=O)N/C=C/c1cc(O)ccc1O	41.3 µM (inactive)	35.9 µM (inactive)	37.7 µM (inactive)	29.4 µM (inactive)	13.9 µM (inactive)	45.7 µM (inactive)	32.6 µM (inactive)	3.67 µM (inactive)	–	40.8 µM	16 µM (inactive)	31.7 µM (inactive)	> 60.7 µM (inactive)	16.6 µM (inactive)	32.5 µM (inactive)	29.9 µM (inactive)	31 µM (inactive)	23.4 µM (inactive)	32.8 µM (inactive)	> 41 µM (inactive)
